Test results: PMC9143943, “Novel Tyrosine Kinase Inhibitors to Target Chronic Myeloid Leukemia” (Molecules, 2022)
Entries after “also recorded” stand apart in the source; their conditions may differ. Like-named read-outs stand apart in the source and are kept apart here.

Columns and labels:
[1] = target: BCR-ABL kinase (Homo sapiens, UniProt P00519); assay: FRET-based Z'-Lyte kinase assay
Description: Novel compounds were tested to investigate their ability to inhibit both BCR-ABL TK and HO-1.

[2] = target: T1, HO-1 (Rattus norvegicus, UniProt P06762); assay: HO-1 enzymatic activity in microsomal fraction of rat spleen (bilirubin formation); type: biochemical
T1 construct: This microsomal preparation represents the most native (i.e., closest to in vivo) form of HO-1; from tissue; host or cells: rat spleen microsomes (male Sprague-Dawley rats)
T1 sequence (P06762 1-289): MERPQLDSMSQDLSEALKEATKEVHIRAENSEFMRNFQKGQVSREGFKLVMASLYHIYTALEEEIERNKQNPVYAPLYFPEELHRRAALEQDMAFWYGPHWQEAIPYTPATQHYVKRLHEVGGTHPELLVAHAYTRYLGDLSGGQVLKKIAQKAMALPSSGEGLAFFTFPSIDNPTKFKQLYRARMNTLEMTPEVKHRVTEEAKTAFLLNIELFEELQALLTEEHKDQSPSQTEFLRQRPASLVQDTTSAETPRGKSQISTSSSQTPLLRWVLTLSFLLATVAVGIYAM
Description: HO-1 activity was measured in microsomal fractions of rat spleen obtained as described in the experimental section. The activity was determined by measuring the bilirubin formation using the difference in absorbance at 464–530 nm. HO-1 inhibitors LS/0 and LS1/71 were used as reference compounds. […] Nevertheless, some observed differences in the results among the tested compounds allow us to discuss SAR as follows. HO-1 inhibitory activity mainly depends on the position of the oxybutylimidazole moiety and only to a lesser extent on the R substituent on the benzamide ring.
Since HO-1 protein is abundant in the rat spleen as well documented, rat spleen microsomal fraction prepared by differential centrifugation was used as source of the HO-1 protein. This microsomal preparation represents the most native (i.e., closest to in vivo) form of HO-1. Spleen microsomal fractions were obtained according to Ryter et al.. The experiments reported in the present paper complied with current Italian law and met the guidelines of the Institutional Animal Care and Use Committee of Ministry of Health (Directorate General for Animal Health and Veterinary Medicines, Italy) “Dosing of enzymatic activities in rat microsomes” (2018–2022), project code 02769.N.VLY. Male Sprague–Dawley albino rats (150 g body weight and age 45 d) used in our experimental conditions to obtain spleen microsomal fraction had free access to water and were kept at room temperature with a natural photo-period (12 h light–12 h dark cycle). To obtain a homogenate (15%, w/v) of spleens, each rat was sacrificed, and its spleen was excised and weighed. Spleens pooled from five rats were homogenized in 50 mM Tris buffer, pH 7.4, containing 0.25 M sucrose, using a Potter–Elvehjem homogenizing system with a Teflon pestle. The microsomal fraction of rat spleen homogenate was obtained by differential centrifugation: first centrifugation at 10,000× g for 20 min at 4 °C and a second centrifugation of the supernatant at 100,000× g for 60 min at 4 °C. The 100,000× g pellet (microsomes) was resuspended in 100 mM potassium phosphate buffer, pH 7.8, containing 2 mM MgCl2. The rat spleen fraction was divided into aliquots and stored at −80 °C for up to 2 months, and then its protein concentration was measured.
Biliverdin reductase was obtained by using rat liver cytosol. Three volumes of a solution 1.15% KCl w/v and Tris buffer 20 mM, pH 7.8, were used to homogenize on ice liver tissue. The 10,000× g supernatant was obtained by differential centrifugation: first centrifugation at 10,000× g for 20 min at 4 °C and a second centrifugation at […] at 4 °C to sediment the microsomes. The 10,000× g supernatant was stored in small amounts at −80 °C, and then its protein concentration was measured.
The HO-1 activity was determined by measuring the bilirubin formation using the difference in absorbance at 464–530 nm, as described by Ryter et al.. A final volume of 500 μL of incubation mixtures contained 20 mM Tris–HCl, pH 7.4, (1 mg/mL) microsomal extract, 0.5–2 mg/mL biliverdin reductase, 1 mM NADPH, 2 mM glucose 6-phosphate (G6P), 1 U G6P dehydrogenase, 25 μM hemin, and 10 μL of DMSO (or the same volume of DMSO solution of test compounds to a final concentration of 100, 10, and 1 μM). Enzymatic reactions were carried out in the dark for 60 min at 37 °C in a circulating water bath. The reactions were stopped by the addition of 500 μL of chloroform. After recovering the chloroform phase, the amount of bilirubin formed was measured with a double-beam spectrophotometer as OD464–530 nm (extinction coefficient, 40 mM/cm^−1 for bilirubin). The enzymatic activity was defined as Units (one Unit is the amount of enzyme catalyzing the formation of 1 nmol of bilirubin/mg protein/h).

[3] = test system: K562-S cells; assay: In vitro cytotoxicity, NIL-sensitive K562 cells (trypan blue / XTT); type: cell-based; conditions: 0.5 and 5 μM, 48 h
Description: K562 cells (CCL-243 ATCC) were cultured in RPMI 1640 (L0500, Biowest, Riverside, MO, USA) supplemented with 10% Fetal Bovine Serum (FBS) and 1% penicillin–streptomycin and incubated at 37 °C in 5% CO2. K562 cells were seeded at a concentration of 1 × 10^5 cells/mL of culture medium. […] Briefly, cells were harvested by centrifugation and resuspended in 5 mL of fresh medium; then an aliquot of 10 μL was taken and mixed with Trypan Blue (93595, Sigma-Aldrich, Milan, Italy) stain (1:1). The mixture was applied on a counting chamber, and cells were counted on a binocular microscope. […] Once resistance was established (after approximately 9 months), K562-R and K562-S were treated with compounds at different concentrations.
Treatments were maintained for 48 h, and then cell viability was assessed: (a) with 0.2% (final concentration) trypan blue dye exclusion analysis which is used to determine the number of viable cells present in a cell suspension and (b) with XTT assay.
• (a) Briefly, the cell number was determined by counting the viable cells in a Burker counting chamber divided into 16 fields of 1 mm^2. […]

[4] = experimental HO-1 IC50 repeated in Table 3, read-out: IC50
[5] = rat spleen microsomal fraction, read-out: HO-1 IC50 (μM) ± SD

BCR-ABL kinase, sequence (P00519 whole entry): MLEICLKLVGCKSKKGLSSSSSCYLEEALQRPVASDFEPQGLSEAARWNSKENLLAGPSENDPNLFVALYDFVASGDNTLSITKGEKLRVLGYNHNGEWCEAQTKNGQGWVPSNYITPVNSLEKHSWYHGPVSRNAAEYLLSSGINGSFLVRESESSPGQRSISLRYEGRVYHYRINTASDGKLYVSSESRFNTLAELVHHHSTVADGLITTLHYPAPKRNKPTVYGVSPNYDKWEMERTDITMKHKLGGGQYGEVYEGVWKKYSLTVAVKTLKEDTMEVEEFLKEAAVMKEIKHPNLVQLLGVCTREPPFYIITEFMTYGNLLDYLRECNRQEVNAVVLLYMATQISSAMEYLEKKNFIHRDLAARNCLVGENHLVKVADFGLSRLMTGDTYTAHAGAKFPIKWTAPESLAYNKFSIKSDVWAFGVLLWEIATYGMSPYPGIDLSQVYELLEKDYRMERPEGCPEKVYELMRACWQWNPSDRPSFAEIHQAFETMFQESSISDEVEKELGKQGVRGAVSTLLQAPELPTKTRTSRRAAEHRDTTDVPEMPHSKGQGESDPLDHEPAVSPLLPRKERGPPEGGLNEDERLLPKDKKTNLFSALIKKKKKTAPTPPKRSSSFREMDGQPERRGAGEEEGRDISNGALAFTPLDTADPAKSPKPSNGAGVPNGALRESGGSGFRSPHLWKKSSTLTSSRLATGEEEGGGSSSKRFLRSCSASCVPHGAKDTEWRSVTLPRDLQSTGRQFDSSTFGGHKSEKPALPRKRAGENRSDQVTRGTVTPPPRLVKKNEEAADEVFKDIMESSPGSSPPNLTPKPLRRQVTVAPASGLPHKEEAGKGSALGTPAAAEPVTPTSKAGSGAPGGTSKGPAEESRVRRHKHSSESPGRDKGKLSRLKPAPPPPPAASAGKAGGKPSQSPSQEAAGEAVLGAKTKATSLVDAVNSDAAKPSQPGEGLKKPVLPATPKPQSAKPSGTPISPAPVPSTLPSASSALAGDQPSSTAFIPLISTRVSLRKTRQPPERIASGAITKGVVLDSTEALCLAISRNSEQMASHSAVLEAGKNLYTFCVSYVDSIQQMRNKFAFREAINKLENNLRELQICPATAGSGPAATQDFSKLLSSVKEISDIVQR

## Cc1ccc(C(=O)Nc2ccccc2OCCCCn2ccnc2)cc1Nc1nccc(-c2cccnc2)n1 [Compound 1c, N-(2-(4-(1H-imidazol-1-yl)butoxy)phenyl)-4-methyl-3-((4-(pyridin-3-yl)pyrimidin-2-yl)amino)benzamide]
[1]
  IC50: 14.6 ± 0.283 µM
[2]; [4]
  IC50: 149 µM
[2]; [5]
  IC50: 149 ± 8.1 µM

## Cc1ccc(C(=O)Nc2cccc(OCCCCn3ccnc3)c2)cc1Nc1nccc(-c2cccnc2)n1 [Compound 1b, N-(3-(4-(1H-imidazol-1-yl)butoxy)phenyl)-4-methyl-3-((4-(pyridin-3-yl)pyrimidin-2-yl)amino)benzamide]
[1]
  IC50: 4.19 ± 0.16 µM
other
  melting point: 118 to 120 °C
[2]; [4]
  IC50: 64.6 µM
[2]; [5]
  IC50: 64.6 ± 0.69 µM

## Cc1ccc(C(=O)Nc2cc(Br)cc(OCCCCn3ccnc3)c2)cc1Nc1nccc(-c2cccnc2)n1 [Compound 1g, N-(3-(4-(1H-imidazol-1-yl)butoxy)-5-bromophenyl)-4-methyl-3-((4-(pyridin-3-yl)pyrimidin-2-yl)amino)benzamide]
[1]
  IC50: 0.077 ± 0.0036 µM
other
  melting point: 162 to 164.4 °C
[3]
  K562-S cell viability: significant reduction; also recorded: cytotoxic properties similar to NIL and IM
[2]; [4]
  IC50: 51 µM
[2]; [5]
  IC50: 51 ± 0.99 µM

## Cc1ccc(C(=O)Nc2ccc(Br)c(OCCCCn3ccnc3)c2)cc1Nc1nccc(-c2cccnc2)n1 [Compound 1f, N-(3-(4-(1H-imidazol-1-yl)butoxy)-4-bromophenyl)-4-methyl-3-((4-(pyridin-3-yl)pyrimidin-2-yl)amino)benzamide]
[1]
  IC50: 5.21 ± 0.224 µM
[2]; [4]
  IC50: 100 µM
[2]; [5]
  IC50: 100 ± 3.29 µM

## Cc1ccc(C(=O)Nc2ccc(Br)cc2OCCCCn2ccnc2)cc1Nc1nccc(-c2cccnc2)n1 [Compound 1i, N-(2-(4-(1H-imidazol-1-yl)butoxy)-4-bromophenyl)-4-methyl-3-((4-(pyridin-3-yl)pyrimidin-2-yl)amino)benzamide]
[1]
  IC50: 13.7 ± 0.139 µM
other
  melting point: 94 to 96 °C
[2]; [4]
  IC50: 83.4 µM
[2]; [5]
  IC50: 83.4 ± 2.3 µM

## Cc1ccc(OCCCCn2ccnc2)c(NC(=O)c2ccc(C)c(Nc3nccc(-c4cccnc4)n3)c2)c1 [Compound 1j, N-(2-(4-(1H-imidazol-1-yl)butoxy)-5-methylphenyl)-4-methyl-3-((4-(pyridin-3-yl)pyrimidin-2-yl)amino)benzamide]
[1]
  IC50: 5.45 ± 0.223 µM
[2]; [4]
  IC50: 3060 µM
[2]; rat spleen microsomal fraction, read-out: HO-1 IC50
  IC50: ~3000 µM
[2]; [5]
  IC50: 3060 ± 201 µM

## Cc1ccc(C(=O)Nc2ccc(OCCCCn3ccnc3)cc2)cc1Nc1nccc(-c2cccnc2)n1 [Compound 1a, N-(4-(4-(1H-imidazol-1-yl)butoxy)phenyl)-4-methyl-3-((4-(pyridin-3-yl)pyrimidin-2-yl)amino)benzamide]
[1]
  IC50: 0.109 ± 0.0016 µM
other
  melting point: 140 to 142 °C
[2]; [4]
  IC50: 44.8 µM
[2]; [5]
  IC50: 44.8 ± 2.58 µM

## Cc1ccc(C(=O)Nc2cc(OCCCCn3ccnc3)cc(C(F)(F)F)c2)cc1Nc1nccc(-c2cccnc2)n1 [Compound 1h, N-(3-(4-(1H-imidazol-1-yl)butoxy)-5-(trifluoromethyl)phenyl)-4-methyl-3-((4-(pyridin-3-yl)pyrimidin-2-yl)amino)benzamide]
[1]
  IC50: 0.77 ± 0.042 µM
other
  melting point: 180.3 to 182.5 °C
[3]
  K562-S cell viability: significant reduction; also recorded: cytotoxic properties similar to NIL and IM
[2]; [4]
  IC50: 65.4 µM
[2]; [5]
  IC50: 65.4 ± 1.39 µM

## Cc1ccc(C(=O)Nc2cc(OCCCCn3ccnc3)ccc2Br)cc1Nc1nccc(-c2cccnc2)n1 [Compound 1d, N-(5-(4-(1H-imidazol-1-yl)butoxy)-2-bromophenyl)-4-methyl-3-((4-(pyridin-3-yl)pyrimidin-2-yl)amino)benzamide]
[1]
  IC50: 16.2 ± 0.208 µM
other
  melting point: 69.8 to 72 °C
[2]; [4]
  IC50: 116 µM
[2]; [5]
  IC50: 116 ± 5.24 µM

## Cc1ccc(C(=O)Nc2ccc(OCCCCn3ccnc3)c(Br)c2)cc1Nc1nccc(-c2cccnc2)n1 [Compound 1e, N-(4-(4-(1H-imidazol-1-yl)butoxy)-3-bromophenyl)-4-methyl-3-((4-(pyridin-3-yl)pyrimidin-2-yl)amino)benzamide]
[1]
  IC50: 0.037 ± 0.0012 µM
[2]; [4]
  IC50: 55.1 µM
[2]; [5]
  IC50: 55.1 ± 0.71 µM
